From patent US11118227B2, “Methods of identifying agents having neuroprotective or anti-oxidant activity for regulating mitochondrial function” (THE ROYAL VETERINARY COLLEGE, priority 2015, dated 2021)
Entries after “also recorded” stand apart in the source; their conditions may differ.

What was measured:
TSPO [1] = test: Immunofluorescence and immunoblot of TSPO in SHY-5Y cells treated with PD toxins; type: cell-based
Excerpt: a. Representative immunofluorescence of TSPO in SHY-5Y Cells. Panels b and c: Immunoblot analysis of TSPO expression pattern and ATPB5 in SHY-5Y Cells treated with MPP^+ and 6-OHD.

TSPO mRNA = test: RT-PCR of TSPO mRNA levels in MEF cells; type: cell-based, mouse; settings: 24 h, PMI (10 μM) or sulforaphane (1 μM), vs control
Procedure: (D) RT-PCR analysis for estimation of TSPO mRNA levels in MEFs following treatment with DMSO, PMI (10 μM) and/or sulforaphane (1 μM). Values are presented as arbitrary units normalized to 18s RNA levels for each sample, n≥3.
(§1) TSPO has been recently described as a modulator of mitophagy (Gatliff et al., 2014). We were therefore interested to examine if PMI and sulforaphane alter its accumulation on Mitochondria as well as its transcription levels FIG. 6E.

TSPO [2] = test: TSPO expression in PARK2 null cells (HeLa); type: cell-based
MEF cells [3] = settings: 24 h, 1 μM sulforaphane or 10 μM PMI, previously reported work (East et al., 2014), FIG. 1C; cited from earlier work
MEF cells [4] = test: Western blot of mitochondrial protein levels (MTCO-1, β-subunit) in MEF cells; type: cell-based, mouse; settings: 24 h; for PMI (Nrf2)-induced reduction of mitochondrial protein levels, on co-administration of sulforaphane: 10 μM PMI & 1 μM sulforaphane; for mitochondrial network / key mitochondrial protein levels by western blot: vs untreated cells
Procedure: [β-actin is shown as a loading control.
B-actin is shown as a loading control.
(§2) B-actin is shown as a loading control. […].
(§3) (A) Western blot to compare β-subunit, MTCO-1 and TSPO levels in MEFs treated with either DMSO vehicle control, or sulforaphane (1 μM), or PMI (10 μM) either with or without co-administration of UO126 (10 μM) for 24 h. B-actin is shown as a loading control.

MEF cells [5] = test: Western blot of mitochondrial protein ubiquitination in mitochondrial fractions of MEF cells; type: cell-based, mouse; settings: 24 h, FIG. 3B
Excerpt: (B) Western blot of mitochondrial fractions, highlighting mitochondrial ubiquitination in control or sulforaphane and/or PMI-treated MEF cells. B-subunit is shown as a loading control; n=2.
(§4) The levels and localisation of p62 in MEF cells were then examined by immunoblotting (FIG. 3A).

PARK2 [6] = test: Western blot of PARK2 in mitochondrial fractions of MEF cells (basal conditions); type: cell-based, mouse; settings: 24 h; for levels of PARK2 in mitochondrial fractions: basal, vs vehicle control, FIG. 4A-B
Excerpt: We therefore examined the ability of PARK2 to translocate to mitochondria either under basal conditions or after Carbonyl cyanide-4-(trifluoromethoxy)phenylhydrazone (FCCP an ionophore) treatment.

MEF cells [7] = test: Confocal imaging of colocalisation of mitochondria and LC-3 in MEF cells; type: cell-based, mouse; settings: 24 hr; for mitochondrial LC3 colocalisation (mitophagy): 1 μM sulforaphane or 10 μM PMI, FIG. 2D
Procedure: (D) Representative images of LC3 localization in MEF cells treated with DMSO vehicle control, or 1 μM sulforaphane and/or 10 μM PMI for 24 hr. Scale bar represents 10 μm. A magnification of the merge images is shown in areas demarcated by the white box.
To investigate the effects of sulforaphane in mitophagy, we examined the colocalisation of mitochondria and LC-3 in MEF cells using high-resolution confocal imaging (FIG. 2D).

PARK2 [8] = test: Live imaging of YFP-PARK2 translocation in HeLa cells co-transfected with mt-RFP and YFP-PARK2; type: cell-based; settings: for time of FCCP treatment to almost complete co-localisation of PARK2 in mitochondria: YFP-PARK2; for time of FCCP treatment at which PARK2 translocation was initiated: YFP-PARK2, pre- or co-treated
TSPO [9] = test: Immunoblotting of TSPO levels in MEF cells; type: cell-based, mouse; settings: 24 h, 1 μM sulforaphane or 10 μM PMI, vs control
Procedure: as §3
(B) Graph show MTCO-1:β-actin (B), β-subunit:β-actin (C), TSPO:β-actin ratio band density analysis, n=3.
as §1

HeLa cells = test: Western blot of mitochondrial proteins (mitophagy) in HeLa cells; type: cell-based; settings: HeLa cells (PARK2 null), after 7 h and 24 h
Excerpt: as §2

PARK2 [10] = test: Immunocytochemistry of FCCP-induced PARK2 translocation in MEF cells; type: cell-based, mouse; settings: 24 hr treatment then FCCP (20 μM) 4 hr, vs vehicle control, FIG. 4E
Procedure: (E) Representative images of PARK2 localization in MEF cells treated with DMSO vehicle control or 1 μM sulforaphane and/or 10 μM PMI for 24 hr, before and after treatment with FCCP (20 μM) for 4 hr. Scale bar represents 10 μm. A magnification of the merge images is shown in areas demarcated by the white box.

p62 [11] = settings: MEF cells, 24 h, 1 μM sulforaphane
Procedure: (A) Representative images of P62 localization in MEF cells treated with DMSO vehicle control, or 1 μM sulforaphane and/or 10 μM PMI for 24 hr. Scale bar represents 10 μm. A magnification of the merge images is shown in areas demarcated by the white box. […].
as §4

[12] = target: T1, human Keap1 Kelch protein (Homo sapiens, UniProt Q14145); test: Biochemical experiments on the Keap1-Nrf2 protein-protein interaction with human Keap1 Kelch protein
T1 construct: human Keap1 Kelch protein
T1 sequence (Q14145 321-609 limits assumed): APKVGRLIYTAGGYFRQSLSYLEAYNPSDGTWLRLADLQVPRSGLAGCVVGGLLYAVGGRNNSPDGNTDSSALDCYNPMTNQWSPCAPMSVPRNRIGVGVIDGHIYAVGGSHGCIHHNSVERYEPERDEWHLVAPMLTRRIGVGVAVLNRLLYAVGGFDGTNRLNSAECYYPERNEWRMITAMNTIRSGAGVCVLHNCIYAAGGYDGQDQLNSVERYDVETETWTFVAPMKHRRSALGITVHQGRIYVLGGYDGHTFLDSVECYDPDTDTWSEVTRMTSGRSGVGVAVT
Procedure: To confirm the mode of action of PMI, a series of biochemical experiments were conducted with human Keap1 Kelch protein.

P62 [13] = settings: East et al 2014, cited from earlier work

SMILES | TSPO expression (TSPO [1]) | levels of TSPO mRNA (RT-PCR) (TSPO mRNA) | expression of TSPO (TSPO [2]) | mitochondrial network / key mitochondrial protein levels by western blot (MEF cells [4]) | levels of PARK2 in mitochondrial fractions (PARK2 [6]) | mitochondrial LC3 colocalisation (mitophagy) (MEF cells [7]) | time of FCCP treatment to almost complete co-localisation of PARK2 in mitochondria (PARK2 [8]) | time of FCCP treatment at which PARK2 translocation was initiated (PARK2 [8]) [min] | levels of TSPO by immunoblotting (TSPO [9]) | induction of mitophagy (mitochondrial protein levels) (HeLa cells) | FCCP-induced PARK2 translocation (PARK2 [10]) | further results
NCCc1cc(O)c(O)cc1O [6-HOD] | upregulate TSPO |  |  |  |  |  |  |  |  |  |  | 
C[S+]([O-])CCCCN=C=S (stereo not shown) [sulforaphane] |  | statistically significant increase | does not affect the expression of TSPO | no significant differences | reduced compared to the vehicle control | no induction of mitophagy was observed | approximately 60 mins | 30 | no significant differences were observed | induction of mitophagy was observed | no statistically significant differences | mitochondrial proteins (MTCO-1) by Western blot (MEF cells [3]): an increase in mitochondrial proteins; PMI (Nrf2)-induced reduction of mitochondrial protein levels, on co-administration of sulforaphane (MEF cells [4]): significant normalization of the mitochondrial protein levels; PMI (Nrf2)-induced reduction of mitochondrial protein levels, on co-administration of sulforaphane (MEF cells [4]; listed as Sulforaphane): inhibits the Nrf2-induced reduction of mitochondrial protein levels; PMI-induced mitochondrial ubiquitination, on co-administration of sulforaphane (MEF cells [5]; PMI plus sulforaphane): abolished the effect attributed to PMI; mitochondrial LC3 colocalisation attributed to PMI, on addition of sulforaphane (MEF cells [7]; 10 μM PMI plus 1 μM sulforaphane): abolished; levels of TSPO by immunoblotting (TSPO [9]; listed as Sulforaphane): does not affect the expression of TSPO; levels of p62 in the cytosol (p62 [11]): increased levels of p62 in the cytosol compared to control; translocation of p62 to mitochondria (p62 [11]): impaired and significantly reduced compared to basal conditions
O=[N+]([O-])c1cccc(-c2cn(-c3cccc(I)c3)nn2)c1 [PMI] |  | reduced compared to control | but not in the cells in which PARK2 is not expressioned such as HeLa cells | reduced mitochondrial network | no statistically significant differences | significantly increased compared to untreated cells | approximately 60 mins | 30 | reduction in the levels of TSPO; also recorded: decreases TSPO levels in MEFs | induction of mitophagy was observed | no statistically significant differences | degradation of the Keap1 Kelch protein [12]: without causing a degradation of the Keap1 Kelch protein; disruption of the protein-protein interaction between Keap1 and Nrf2 [12]: able to disrupt the protein-protein interaction between Keap1 and Nrf2 in a dose-dependent manner; ubiquitination in mitochondrial fractions (MEF cells [5]; vs vehicle control): increased ubiquitination; sulforaphane-reduced PARK2 activity, on addition of PMI (PARK2 [6]; sulforaphane plus PMI): did not alter the reduced activity of PARK2; P62 expression (P62 [13]): upregulates P62 via stabilization of Nrf2; mitophagy (P62 [13]): promotes mitophagy; toxic effects on cells (P62 [13]; at the concentrations used in the assays): does not mediate any apparent toxic effects on cells
C[n+]1ccc(-c2ccccc2)cc1 [MPP^+] | upregulate TSPO |  |  |  |  |  |  |  |  |  |  | 
